Patent publication US20260166162A1, “CARBON CHAIN SUBSTANCE FOR REGULATING TRANSMEMBRANE TRANSPORT AND FLUIDITY OF CELL MEMBRANES, AND PREPARATION AND USE THEREOF” (priority 2022, published 2026)
Values joined by “and” are separate entries in the source; they are usually repeats but may differ in a detail not shown here. Equal entries are not always repeated. Where two headings read alike, the source gives them in different places.

Experiments:
Escherichia coli = assay: Bacteriostasis/sterilization test (plate count); type: cell-based
Staphylococcus aureus = assay: Bacteriostasis/sterilization test (plate count); type: cell-based; conditions: for inhibition rate: concentration 0.035 mM; for IC50: read-out: half inhibition concentration
[1] = tested on: Methicillin-resistant Staphylococcus aureus; assay: Bacteriostasis/sterilization test (plate count); type: cell-based; conditions: 0.035 mM (Table 25)
Streptococcus pneumoniae = assay: Bacteriostasis/sterilization test (plate count); type: cell-based
Klebsiella pneumoniae = assay: Bacteriostasis/sterilization test (plate count); type: cell-based
Pseudomonas aeruginosa = assay: Bacteriostasis/sterilization test (plate count); type: cell-based
H7N9 pseudovirus = type: cell-based, Influenza pseudovirus H7N9-Fluc
H5N1 pseudovirus = type: cell-based, Influenza pseudovirus H5N1-Fluc
HIV pseudovirus = type: cell-based, HIV pseudovirus HIV18A-41
SARS-CoV-2 pseudovirus [2] = type: cell-based, SARS-CoV-2 pseudovirus B.1.526.2
SARS-CoV-2 pseudovirus [3] = tested on: SARS-CoV-2 pseudovirus; parameters: species or system SARS-CoV-2 pseudovirus B.1.526.2
[4] = mouse, in vivo, po
VERO E6 cells = assay: Cytotoxicity (CCK-8) on VERO E6 cells; conditions: […] to 0.035 mM
[5] = tested on: Human hair follicle stem cells; assay: Human hair follicle stem cell proliferation (EdU); type: cell-based; conditions: 20 μM, 30 μM, 50 μM, 6 h
[6] = tested on: HPV pseudovirus (HPV6-GFP); conditions: read-out: median neutralization concentration
Hela cells [7] = assay: Cell membrane fluidity (Laurdan fluorescence recovery) in Hela cells; type: cell-based
TNF-α [8] = assay: Skin photoaging (UVB) in BALB/c nude mice, serum TNF-α (Example II-54, Table II-32); type: in vivo, mouse; conditions: UVB-irradiated BALB/c nude mice, 40 days
IL-1β [9] = assay: Skin photoaging (UVB) in BALB/c nude mice, serum IL-1β (Example II-54, Table II-33); type: in vivo, mouse
IL-6 [10] = assay: Skin photoaging (UVB) in BALB/c nude mice, serum IL-6 (Example II-54, Table II-34); type: in vivo, mouse
IL-1β [11] = assay: LPS inflammatory aging in C57BL/6 mice, serum IL-1β (Example II-55, Table II-35); type: in vivo, mouse; conditions: 1 mM, 200 μl/time, once a day, 30 days
IL-6 [12] = assay: LPS inflammatory aging in C57BL/6 mice, serum IL-6 (Example II-55, Table II-36); type: in vivo, mouse
TNF-α [13] = assay: LPS inflammatory aging in C57BL/6 mice, serum TNF-α (Example II-55, Table II-37); type: in vivo, mouse; conditions: 1 mM, 200 μl/time once a day for 30 days, LPS C57BL/6 mice
Hela cells [14] = assay: Phagocytosis of adriamycin-loaded ferroferric oxide nanoparticles by Hela cells; type: cell-based; conditions: 5 nM for 1 h, then nanoparticles 4 h
Description: Hela cells (cell bank, Chinese Academy of Sciences) were seeded in a 6-well plate at a density of 1.0*10^5 and cultured for 24 h. The cells were treated with 5 nM Ser-EPA for 1 h and washed to remove Ser-EPA. Adriamycin-loaded ferroferric oxide nanoparticles were added followed by incubation for 4 h. Then, the cells were washed with PBS, stained with DAPI, and observed with confocal microscope.

Hela cells [15] = assay: Cell migration (scratch) in Hela cells; type: cell-based; conditions: 24 h
Description: Hela cells in logarithmic growth phase (cell bank of Chinese Academy of Sciences) were trypsinized into a single cell suspension and inoculated into a 6-well culture plate. […] The next day 5 nM Thr-EPA was added by scratching with a 200-microliter gun tip against the horizontal line on the vertical back of the lid of the 6-well plate. 24 h later, samples were taken and photographed. […] Hela cells in logarithmic growth phase (cell bank of Chinese Academy of Sciences) were trypsinized into a single cell suspension and inoculated into a 6-well culture plate. […] The next day […] Thr-EPA was added by scratching with a 200-microliter gun tip against the horizontal line on the vertical back of the lid of the 6-well plate. 24 h later, samples were taken and photographed.

[16] = 30 μM smeared, serum, UVB-irradiated BALB/c nude mice, 40 days
[17] = 50 μM smeared, serum, UVB-irradiated BALB/c nude mice, 40 days
[18] = 100 μM smeared, serum, UVB-irradiated BALB/c nude mice, 40 days

## CCC=CCC=CCC=CCC=CCC=CCC=CCCC(=O)NCCCCC(N)C(=O)O (stereo not shown)
Escherichia coli
  Inhibition rate (%): 99%
Staphylococcus aureus
  Inhibition rate (%): 99%
  inhibition rate: greater than 99%
  IC50: 9 µM
[1]
  Inhibition rate (%): 99%
Streptococcus pneumoniae
  Inhibition rate (%): 99%
Klebsiella pneumoniae
  Inhibition rate (%): 99%
Pseudomonas aeruginosa
  Inhibition rate (%): 99%
H7N9 pseudovirus
  Sterilization rate (%): 99%
H5N1 pseudovirus
  Sterilization rate (%): 99%
HIV pseudovirus
  Sterilization rate (%): 99%
SARS-CoV-2 pseudovirus [2]
  Sterilization rate (%): 99%
SARS-CoV-2 pseudovirus [3]
  membrane structure of the virus (TEM): broken
[4]
  liver, heart, kidney, bone/hepatobiliary function in blood versus control group: no difference
  physiological state, body weight, fur color, food consumption, mental state versus control group: not significantly different
VERO E6 cells
  effect of the complex on cells: less than 10%

## CCC=CCC=CCC=CCC=CCC=CCC=CCCC(=O)OCC(N)C(=O)O (stereo not shown)
Escherichia coli; 0.035 mM (Table 25)
  Inhibition rate (%): 99%
Staphylococcus aureus; 0.035 mM (Table 25)
  Inhibition rate (%): 99%
Staphylococcus aureus
  inhibition rate: greater than 99%
  IC50: 9 µM
[1]
  Inhibition rate (%): 99%
Streptococcus pneumoniae; 0.035 mM (Table 25)
  Inhibition rate (%): 99%
Klebsiella pneumoniae; 0.035 mM (Table 25)
  Inhibition rate (%): 99%
Pseudomonas aeruginosa; 0.035 mM (Table 25)
  Inhibition rate (%): 99%
H7N9 pseudovirus
  Sterilization rate (%): 99%
H5N1 pseudovirus
  Sterilization rate (%): 99%
HIV pseudovirus
  Sterilization rate (%): 99%
SARS-CoV-2 pseudovirus [2]
  Sterilization rate (%): 99%
[5]
  proliferation of human hair follicle stem cells: effectively promote the proliferation
[6]
  IC50: 9 µM

## CCC=CCC=CCC=CCC=CCC=CCC=CCCC(=O)OC(C)C(N)C(=O)O (stereo not shown)
Escherichia coli; 0.035 mM (Table 25)
  Inhibition rate (%): 99%
Staphylococcus aureus; 0.035 mM (Table 25)
  Inhibition rate (%): 99%
Staphylococcus aureus
  inhibition rate: greater than 99%
  IC50: 9 µM
[1]
  Inhibition rate (%): 99%
Streptococcus pneumoniae; 0.035 mM (Table 25)
  Inhibition rate (%): 99%
Klebsiella pneumoniae; 0.035 mM (Table 25)
  Inhibition rate (%): 99%
Pseudomonas aeruginosa; 0.035 mM (Table 25)
  Inhibition rate (%): 99%
H7N9 pseudovirus
  Sterilization rate (%): 99%
H5N1 pseudovirus
  Sterilization rate (%): 99%
HIV pseudovirus
  Sterilization rate (%): 99%
SARS-CoV-2 pseudovirus [2]
  Sterilization rate (%): 99%
SARS-CoV-2 pseudovirus [3]
  membrane structure of the virus (TEM): broken
Hela cells [7]; 2 nM, 20 s
  Fluorescence recovery rate %: 65.48%
Hela cells [7]; 2 nM, 40 s
  Fluorescence recovery rate %: 66.31%
Hela cells [7]; 2 nM, 60 s
  Fluorescence recovery rate %: 66.25%
Hela cells [7]; 2 nM, 80 s
  Fluorescence recovery rate %: 66.78%
Hela cells [7]; 5 nM, 20 s
  Fluorescence recovery rate %: 65.47%
Hela cells [7]; 5 nM, 40 s
  Fluorescence recovery rate %: 65.23%
Hela cells [7]; 5 nM, 60 s
  Fluorescence recovery rate %: 65.38%
Hela cells [7]; 5 nM, 80 s
  Fluorescence recovery rate %: 66.45%
Hela cells [7]; 10 nM, 20 s
  Fluorescence recovery rate %: 65.89%
Hela cells [7]; 10 nM, 40 s
  Fluorescence recovery rate %: 66.04%
Hela cells [7]; 10 nM, 60 s
  Fluorescence recovery rate %: 66.59%
Hela cells [7]; 10 nM, 80 s
  Fluorescence recovery rate %: 66.71%
Hela cells [7]; 50 nM, 20 s
  Fluorescence recovery rate %: 67.42%
Hela cells [7]; 50 nM, 40 s
  Fluorescence recovery rate %: 67.43%
Hela cells [7]; 50 nM, 60 s
  Fluorescence recovery rate %: 67.57%
Hela cells [7]; 50 nM, 80 s
  Fluorescence recovery rate %: 68.06%
Hela cells [7]; 50 μM, 20 s
  Fluorescence recovery rate %: 66.54%
Hela cells [7]; 50 μM, 40 s
  Fluorescence recovery rate %: 73.45%
Hela cells [7]; 50 μM, 60 s
  Fluorescence recovery rate %: 77.91%
Hela cells [7]; 50 μM, 80 s
  Fluorescence recovery rate %: 84.66%
Hela cells [7]; 100 μM, 20 s
  Fluorescence recovery rate %: 66.60%
Hela cells [7]; 100 μM, 40 s
  Fluorescence recovery rate %: 74.67%
Hela cells [7]; 100 μM, 60 s
  Fluorescence recovery rate %: 78.31%
Hela cells [7]; 100 μM, 80 s
  Fluorescence recovery rate %: 86.44%
TNF-α [8]; 30 μM smeared
  TNF-α: 53 pg/mL
TNF-α [8]; 50 μM smeared
  TNF-α: 47 pg/mL
TNF-α [8]; 100 μM smeared
  TNF-α: 49 pg/mL
IL-1β [9]; [16]
  IL-1β: 54 pg/mL
IL-1β [9]; [17]
  IL-1β: 56 pg/mL
IL-1β [9]; [18]
  IL-1β: 50 pg/mL
IL-6 [10]; [16]
  IL-6: 36 pg/mL
IL-6 [10]; [17]
  IL-6: 35 pg/mL
IL-6 [10]; [18]
  IL-6: 34 pg/mL
IL-1β [11]
  IL-1β: 55 pg/mL
IL-6 [12]; 1 mM, 200 μl/time once a day for 30 days, serum, LPS C57BL/6 mice
  IL-6: 50 pg/mL
TNF-α [13]
  TNF-α: 53 pg/mL

## CC/C=C\C/C=C\C/C=C\CCCCCCCC(=O)NCCCCC(N)C(=O)O (stereo not shown) [Lys-ALA]
[5]
  proliferation of human hair follicle stem cells: effectively promote the proliferation

## CCC=CCC=CCC=CCC=CCC=CCCCC(=O)NC(CO)C(=O)O (stereo not shown) [Ser-EPA, Serine-EPA]
Hela cells [14]
  phagocytosis of nanoparticles by treated cells: significantly inhibited
Hela cells [7]; 2 nM, 20 s
  Fluorescence recovery rate %: 63.44%
Hela cells [7]; 2 nM, 40 s
  Fluorescence recovery rate %: 65.36%
Hela cells [7]; 2 nM, 60 s
  Fluorescence recovery rate %: 65.21%
Hela cells [7]; 2 nM, 80 s
  Fluorescence recovery rate %: 66.35%
Hela cells [7]; 5 nM, 20 s
  Fluorescence recovery rate %: 64.73%
Hela cells [7]; 5 nM, 40 s
  Fluorescence recovery rate %: 64.59%
Hela cells [7]; 5 nM, 60 s
  Fluorescence recovery rate %: 65.66%
Hela cells [7]; 5 nM, 80 s
  Fluorescence recovery rate %: 67.97%
Hela cells [7]; 10 nM, 20 s
  Fluorescence recovery rate %: 64.66%
Hela cells [7]; 10 nM, 40 s
  Fluorescence recovery rate %: 65.11%
Hela cells [7]; 10 nM, 60 s
  Fluorescence recovery rate %: 65.24%
Hela cells [7]; 10 nM, 80 s
  Fluorescence recovery rate %: 66.83%
Hela cells [7]; 50 nM, 20 s
  Fluorescence recovery rate %: 62.84%
Hela cells [7]; 50 nM, 40 s
  Fluorescence recovery rate %: 62.94%
Hela cells [7]; 50 nM, 60 s
  Fluorescence recovery rate %: 63.04%
Hela cells [7]; 50 nM, 80 s
  Fluorescence recovery rate %: 64.54%
Hela cells [7]; 50 μM, 20 s
  Fluorescence recovery rate %: 64.33%
Hela cells [7]; 50 μM, 40 s
  Fluorescence recovery rate %: 72.49%
Hela cells [7]; 50 μM, 60 s
  Fluorescence recovery rate %: 73.77%
Hela cells [7]; 50 μM, 80 s
  Fluorescence recovery rate %: 81.40%
Hela cells [7]; 100 μM, 20 s
  Fluorescence recovery rate %: 65.72%
Hela cells [7]; 100 μM, 40 s
  Fluorescence recovery rate %: 72.99%
Hela cells [7]; 100 μM, 60 s
  Fluorescence recovery rate %: 74.34%
Hela cells [7]; 100 μM, 80 s
  Fluorescence recovery rate %: 80.39%
TNF-α [8]; 30 μM smeared
  TNF-α: 54 pg/mL
TNF-α [8]; 50 μM smeared
  TNF-α: 49 pg/mL
TNF-α [8]; 100 μM smeared
  TNF-α: 44 pg/mL
IL-1β [9]; mouse, in vivo
  IL-1β: 57 pg/mL and 61 pg/mL and 54 pg/mL
IL-6 [10]; mouse, in vivo
  IL-6: 41 pg/mL and 38 pg/mL and 39 pg/mL
IL-1β [11]
  IL-1β: 48 pg/mL
IL-6 [12]; mouse, in vivo
  IL-6: 47 pg/mL
TNF-α [13]
  TNF-α: 48 pg/mL

## CCC=CCC=CCC=CCC=CCC=CCCCC(=O)OC(C)C(N)C(=O)O (stereo not shown) [Thr-EPA]
Hela cells [15]; 5 nM
  cell migration: inhibited cell migration
Hela cells [15]; 50 µM
  cell migration: promoted cell migration
